Consider four compounds from patent publication US11292811B2, “Long-acting prodrugs of entecavir, preparing methods and uses thereof” (priority 2017, dated 2022).

Series [1] can be described thus: Pharmacokinetic test in the body of beagle (blood concentration of Entecavir after i.m. injection of prodrug suspension). Type of series: in vivo. The method, then:
Three conventional male beagles were used in the test, and they were forbidden to eat for 12 hours before administering drugs, and drank water freely meanwhile. Entecavir-5′-docosanoate (prepared in Example 4), Entecavir-5′-ursodesoxycholate (prepared in Example 5) and entecavir-5′-stearoylamidobutanoate (prepared in Example 19) were used to prepare a suspension, and were intramuscularly injected in a dosage of 0.508 mg/kg, 0.552 mg/kg, and 0.533 mg/kg respectively.
Treatment of blood plasma sample: 100 μL of blood plasma sample was added to 20 μL of methanol-water (V:V, 1:1) and 20 μL of interior label (2 μg/mL apigenin), and mixed through vortex. 200 μL of methanol was added and mixed through vortex, followed by being centrifuged under a centrifugal force of 14,000 g for 30 minutes. 10 μL of supernate was collected for analysis. The results are shown in Table 1, Table 2, and Table 3, as well as FIG. 1, FIG. 2 and FIG. 3.

For series [2] the following is noted: cited from earlier work.

As for `C=C1[C@H](COC(=O)CCCNC(=O)CCCCCCCCCCCCCCCCC)[C@@H](O)C[C@@H]1n1cnc2c(=O)[nH]c(N)nc21` [Entecavir-5′-stearoylamidobutanoate], the “Release of injectable suspension after intramuscular injection” value (“Release of injectable suspension” for short) in series [1] (dog, in vivo) was “released sustainably and steady”.

Consider `C=C1[C@H](COC(=O)CC[C@@H](C)[C@H]2CC[C@H]3[C@@H]4[C@@H](O)C[C@@H]5C[C@H](O)CC[C@]5(C)[C@H]4CC[C@]23C)[C@@H](O)C[C@@H]1n1cnc2c(=O)[nH]c(N)nc21` [Entecavir-5′-ursodesoxycholate], for which the “Release of injectable suspension” value in series [1] (beagle, intramuscularly injected suspension) was “released sustainably and steady”.

Regarding `C=C1[C@H](CO)[C@@H](O)C[C@@H]1n1cnc2c(=O)[nH]c(N)nc21` [Entecavir], in series [2], the “Cmax decrease when administered with food” value is 44-46% and the “Decrease of area under the curve (AUC) of the drug-time curve when administered with food” value is 18-20%.

Turning to Entecavir-5′-docosanoate, in series [1] (dog, in vivo), the “Release of injectable suspension” value was “released sustainably and steady”.
